Results on 8 compounds are retold here after patent publication US10758620B2, “Potentiated antimicrobial agents” (SEPTEOS, priority 2014, dated 2020).

≈ marks a conversion by molar mass, not a printed value. Where two headings read alike, the source gives them in different places.

One series deals with candidas. The experiment in a line: MIC measurement (dilution test) on yeast strains. It counts as cell-based, Candida. As to conditions: Candida; read-out: MIC of sertaconazole alone. The source says: Inhibitory minimum concentration measurement tests are made in a solid agar medium according to international standards in force (CLSI M7-A9 Jan 12 standards): dispersion of the compounds to be tested in a Mueller Hinton gelose. An adaptation relating to the hydrophobicity of compounds and compositions is however necessary to disperse them in the medium: dilution of the compounds in a solvent. The compounds and compositions incorporated in the agar medium can be diluted beforehand in one or more solvents (Tween® 80 diluted with water, Tween® 80 diluted with […], DMSO diluted with water). The strains are deposited onto the agar surface with a steers apparatus. In the examples, different dissolution methods for products are tested in parallel to circumvent the problems of water/solvent distribution coefficient of the molecules (antimicrobial and potentiator) whereas the bacteria grow only in the aqueous phase. The technical requirement will not intervene in in vivo tests. The same dilution methods can be implemented in a liquid medium (microplates and tubes). The same methodology is implemented with fungi. […] MIC measurement: the minimum inhibitory concentration measurement tests are made in an agar solid medium according to international standards in force (CLSI standards), according to the previously defined protocol. […] The booster contribution as compared with the MIC of the antibiotic alone is expressed in a (MIC ATB)/(MIC ATB+booster) ratio. Thereby, gains are defined: […] The yeast strains tested (n=33) belong to the […] albicans, Candida tropicalis, Candida krusei, Candida parapsilosis, Candida glabrata species.

Another series concerns MSSA 8237. Description: Etest, staphylococci MSSA 8237. It counts as cell-based. As to conditions: MSSA 8237. An excerpt:
(§1) The corresponding tests are made based on the usual MIC test: the Etest® (Biomerieux) strip is deposited onto the surface of a seeded agar medium in which the booster has been incorporated. This test enables solvent effect risks, that is a possible interaction with the solvent used in vitro, to be minimised.
(§2) The control corresponds to the test made without cineol. A control is made in each solvent tested: distilled water, Tween/water and DMSO.
(§3) ED control=antibiotic alone in distilled water
(§4) DMSO control=antibiotic alone in DMSO
(§5) TE control=antibiotic alone in Tween® 80

A further series relates to E. Coli Strain 08138. Description: Etest, E. Coli Strain 08138. It counts as cell-based. As to conditions: Escherichia coli, Strain 08138.
Description: as §1, §2, §3, §4, §5

For the next series, the system named is E. Coli Strain 8150. Description: Etest, E. Coli Strain 8150. It counts as cell-based. As to conditions: Escherichia coli, Strain 8150.
Description: as §1, §2, §3, §4, §5

Another series has as its system MRSA 10178. Description: Etest, staphylococci MRSA 10178. It counts as cell-based.
Description: as §1, §2, §3, §4, §5

Another series concerns Pseudomonas Strain 08131. The experiment in a line: Etest, Pseudomonas Strain 08131. As to conditions: Pseudomonas, STRAIN08131, Strain 08131, read-out: MIC. It counts as cell-based.
Description: as §1, §2, §3, §4, §5

The next series relates to Pseudomonas Strain 08132. The experiment in a line: Etest, Pseudomonas Strain 08132. It counts as cell-based.
Description: as §1, §2, §3, §4, §5

For series [1] the following is noted: orally, cats; cited from earlier work.
For series [2] the following is noted: orally, rats; cited from earlier work.
The test system of series [3] is Strain 09003, methicillin resistant S. aureus (MRSA). The experiment in a line: Resistance test (resistant mutants), Strain 09003. As to conditions: Strain 09003, DMSO, 4 times the MIC, 48 h incubation, combinations 64/100. It counts as cell-based. As to the method:
(§6) After 48 h incubation, the presence or absence of colonies likely to be resistant mutants is observed.
(§7) ED control or DMSO=only distilled water or DMSO is added
(§8) Ciprofloxacine DMSO: addition of Ciprofloxacine in DMSO

Series [4] concerns Strain 10168, methicillin resistant S. aureus (MRSA). Description: Resistance test (resistant mutants), Strain 10168. It counts as cell-based. As to conditions: Strain 10168, DMSO, 4 times the MIC, 48 h incubation, combinations 64/100. As to the method: as §6, §7, §8
Another series deals with Staphylococcus. The experiment in a line: MIC measurement in agar medium (dilution test), Staph. It counts as cell-based. As to conditions: Staphylococcus, read-out: MIC of the amox alone; staphylococci. The source says: Inhibitory minimum concentration measurement tests are made in a solid agar medium according to international standards in force (CLSI M7-A9 Jan 12 standards): dispersion of the compounds to be tested in a Mueller Hinton gelose. An adaptation relating to the hydrophobicity of compounds and compositions is however necessary to disperse them in the medium: dilution of the compounds in a solvent. The compounds and compositions incorporated in the agar medium can be diluted beforehand in one or more solvents (Tween® 80 diluted with water, Tween® 80 diluted with […], DMSO diluted with water). The strains are deposited onto the agar surface with a steers apparatus. In the examples, different dissolution methods for products are tested in parallel to circumvent the problems of water/solvent distribution coefficient of the molecules (antimicrobial and potentiator) whereas the bacteria grow only in the aqueous phase. The technical requirement will not intervene in in vivo tests. The same dilution methods can be implemented in a liquid medium (microplates and tubes). The same methodology is implemented with fungi. […] MIC measurement: the minimum inhibitory concentration measurement tests are made in an agar solid medium according to international standards in force (CLSI standards), according to the previously defined protocol. […] The booster contribution as compared with the MIC of the antibiotic alone is expressed in a (MIC ATB)/(MIC ATB+booster) ratio. Thereby, gains are defined: […]

The mark [5] stands for this setting: DMSO control = antibiotic alone in DMSO.
Where [6] appears, read: ED control = antibiotic alone in distilled water.
[7] abbreviates: Tween water control = antibiotic alone.
The mark [8] stands for this setting: Staphylococcus aureus, MSSA, DMSO control = antibiotic alone in DMSO, read-out: MIC.
Where [9] appears, read: Staphylococcus aureus, MSSA, ED control = antibiotic alone in distilled water, read-out: MIC.
Setting [10] is: Staphylococcus aureus, MSSA, Tween water control = antibiotic alone, read-out: MIC.

For the compound `Clc1ccc(C(Cn2ccnc2)OCc2csc3c(Cl)cccc23)c(Cl)c1` (centres unmarked) [sertaconazole, reference compound], in the series on candidas, the minimum inhibitory concentration (MIC) was 0.06 to 16 µg/mL.
Regarding `CC1(C)S[C@@H]2[C@H](NC(=O)Cc3ccccc3)C(=O)N2[C@H]1C(=O)O` [Penicillin G, reference compound], the MIC amounted to 1.5 µg/mL (≈ 4.49 µM) with MSSA 8237 (setting [5]), 1 µg/mL (≈ 2.99 µM) against MSSA 8237 (setting [6]) and 0.5 µg/mL (≈ 1.5 µM) against MSSA 8237 (setting [7]).
As for `CN(C)c1cc(NC(=O)CNC(C)(C)C)c(O)c2c1C[C@H]1C[C@H]3[C@H](N(C)C)C(O)=C(C(N)=O)C(=O)[C@@]3(O)C(O)=C1C2=O` [Tigecycline, reference compound], the MIC amounted to 0.38 µg/mL (≈ 0.649 µM) against E. Coli Strain 08138 (setting [5]); 0.38 µg/mL (≈ 0.649 µM) in the series on E. Coli Strain 08138 (setting [6]); 0.38 µg/mL (≈ 0.649 µM) in the series with E. Coli Strain 08138 (setting [7]); 0.19 µg/mL (≈ 0.324 µM) in the series on E. Coli Strain 8150 (setting [5]); 0.125 µg/mL (≈ 0.213 µM) in the series on E. Coli Strain 8150 (setting [6]); 0.125 µg/mL (≈ 0.213 µM) against E. Coli Strain 8150 (setting [7]). Also, the MIC with MRSA 10178 (MRSA 10178, ED control = antibiotic alone in distilled water) came out at 0.125 µg/mL (≈ 0.213 µM); against MRSA 10178 (MRSA 10178, Tween water control = antibiotic alone), 0.125 µg/mL (≈ 0.213 µM); in the series with MRSA 10178 (Staphylococcus aureus, MRSA), 0.125 µg/mL (≈ 0.213 µM).
In the case of `C[C@@H](O)[C@H]1C(=O)N2C(C(=O)O)=C(S[C@@H]3CN[C@H](C(=O)N(C)C)C3)[C@H](C)[C@H]12` [Meropenem, reference compound], the MIC was determined as 2 µg/mL (≈ 5.22 µM) in the series on Pseudomonas Strain 08131 (setting [5]); 1.5 µg/mL (≈ 3.91 µM) in the series on Pseudomonas Strain 08131 (setting [6]); 2 µg/mL (≈ 5.22 µM) with Pseudomonas Strain 08131 (setting [7]); 12 µg/mL (≈ 31.3 µM) against Pseudomonas Strain 08132 (setting [5]); 12 µg/mL (≈ 31.3 µM) in the series on Pseudomonas Strain 08132 (Pseudomonas, STRAIN08132, ED control = antibiotic alone in distilled water, read-out: MIC); 12 µg/mL (≈ 31.3 µM) in the series on Pseudomonas Strain 08132 (setting [7]). The MIC with MSSA 8237 (setting [8]) was determined as 0.25 µg/mL (≈ 0.652 µM); in the series on MSSA 8237 (setting [9]), 0.19 µg/mL (≈ 0.495 µM); in the series with MSSA 8237 (setting [10]), 0.25 µg/mL (≈ 0.652 µM).
For the compound `CO[C@@]1(NC(=O)Cc2cccs2)C(=O)N2C(C(=O)O)=C(COC(N)=O)CS[C@@H]21` [Cefoxitine, reference compound], the MIC in the series on MRSA 10178 (Staphylococcus aureus, MRSA, MRSA 10178, DMSO control = antibiotic alone in DMSO, read-out: MIC) is 6 µg/mL (≈ 14 µM); in the series with MRSA 10178 (Staphylococcus aureus, MRSA, MRSA 10178, ED control = antibiotic alone in distilled water, read-out: MIC) it was 6 µg/mL (≈ 14 µM); in the series on MRSA 10178 (Staphylococcus aureus, MRSA, MRSA 10178, Tween water control = antibiotic alone, read-out: MIC) it was 4 µg/mL (≈ 9.36 µM); in the series on MSSA 8237 (setting [8]), 6 µg/mL (≈ 14 µM); with MSSA 8237 (setting [9]), 6 µg/mL (≈ 14 µM); with MSSA 8237 (setting [10]), 6 µg/mL (≈ 14 µM).
Regarding `Cc1ccc(C(C)C)cc1O` [carvacrol], the lowest lethal dose in series [1] and in series [2] was 100 mg/kg in each case.
`O=C(O)c1cn(C2CC2)c2cc(N3CCNCC3)c(F)cc2c1=O` [Ciprofloxacine, ciprofloxacine, reference compound]: the “colonies likely to be resistant mutants” value in series [3] is given as “numerous”; in series [3] (listed as ciprofloxacine), “many mutants”; in series [4], “invaded”; in series [4] (listed as ciprofloxacine) it was “many mutants”.
Take `CC1(C)S[C@@H]2[C@H](NC(=O)[C@H](N)c3ccc(O)cc3)C(=O)N2[C@H]1C(=O)O` [amox, amoxicillin, reference compound]: in the series on Staphylococcus, the MIC was 0.25 to 32 µg/mL.
